Patent publication US20240358678A1, “METHODS AND COMPOSITIONS FOR ENHANCING CHEMOTHERAPEUTIC DRUG UPTAKE INTO BRAIN TUMORS” (Brown University, priority 2023, published 2024)

Columns and labels:
[1] = Hydrophobicity / dissolution in physiological solutions; type: physicochemical; details: difficult to dissolve in physiological solutions
[2] = system: G9-PCDH and G34-PCDH xenograft murine models; test: Immunofluorescence of brain tissue from GBM xenograft models; type: in vivo, mice; details: 24 hours after 20 mg/kg BIA
Procedure: For mouse brain tissue staining, brains were collected from CO2 euthanized and PBS perfused tumor-bearing mice, and fixed in 10% formalin for 72 hours on rotation in the cold. Then, brains were transferred to 30% sucrose for 3 days at 4 degrees Celsius under rotation. Before cryo-sectioning, brains were frozen at −80 degree Celsius for more than 30 minutes, embedded in Optimal Cutting Temperature (OCT) compound (Fisher) and transferred to −27 degrees Celsius to a cryostat (Leica CM1950) for sectioning (20 μm thickness). Sections were placed on slides and staining followed as indicated above. All pictures were taken using a LSM 880 Zeiss confocal microscope.
In vivo studies: For intra-cranial tumor implantation, GBM neuro-spheres were grown to 70% confluency before dissociated into single cell on the day of surgery. 50,000 cells were resuspended in 3 μl of sterile PBS and injected intracranially into the striatum (2 mm right hemisphere, 1 mm frontal, 3 mm depth from bregma) of mice under anesthesia and stereo-tactically fixed. Tumors were left to grow for approximately 2-3 weeks, depending the cell line. Animals were randomized to treatment groups. BIA injections consisted of 20 mg/kg (i.p.), except if indicated otherwise. PPRX-1701 was administered at 20 mg/kg (i.v.) via lateral tail-vein. Cisplatin injections were performed at 5 mg/kg (maximum tolerated dose, i.p.). All GBM tumor murine studies involved continuous condition and weight assessments, with endpoint considered when 20% of weight loss and/or moderate-to-high grimace scale and neurological symptoms were observed.

[3] = system: HCMEC/D3 cells; test: Secretome (Luminex cytokine) quantification; type: cell-based, human; details: BIA 48 hours
Procedure: Secretome quantification: For cytokine analysis of brain endothelial cells after BIA exposure, HCMEC/D3 cells were plated at a density of 500,000 cells/well in a 6-well plate. Cells were treated with indicated doses of BIA or DMSO for 48 hours. Then, 1 mL of media was collected and processed for cytokine quantification in a Luminex platform (Thermo Fischer Scientific) following the provider's instructions.

[4] = system: HCMEC/D3 cells; test: Real-time PCR for CDH5 in HCMEC/D3 cells; type: cell-based, human; details: 1 μM BIA, up to 48 hours
Procedure: (§1) Real-time PCR: Total RNA from GBM and HCMEC/D3 cells was obtained and processed as indicated above. For cDNA generation, we used 1 μg of RNA and processed with the iScript™ cDNA synthesis kit (BioRad), following the protocol indicated by the provider. All primers were designed using NCBI Primer-Blast tool. Detailed information on primer sequences can be found in FIG. 25 (Supplementary Table 3). Gene expression levels were quantified using PowerUp SYBR Green Master Mix (Applied Biosciences) on QuantStudio 6 Pro System (Applied Biosciences), normalized by housekeeping gene GAPDH expression and represented as relative expression using comparative ΔΔCT method.

[5] = system: HCMEC/D3 cells; test: Cell cycle analysis via flow cytometry of HCMEC/D3; type: cell-based, human; details: BIA 0.5 μM or 1 μM
Procedure: Flow cytometry for cell cycle, DNA damage and apoptosis assays: For cell cycle analysis, 100,000 HCMEC/D3 cells were plated in 6-well plates and treated with indicated concentrations of BIA or control for 48 hours. Then, cells were washed twice with PBS and fixed/permeabilized with 5 mL of cold 70% ethanol added dropped-wise while vortexing at low speed. Cells were stored for 1 day at −20 degrees Celsius, washed three times with PBS and treated with 20 μg/mL RNAse I (Thermo Fisher Scientific) and stained with anti-Ki-67 FITC-conjugated (1:1000) (BD Biosystems) and 1.5 μM propidium iodide (Thermo Fisher Scientific). Amer 30 minutes of incubation in the dark, cells were analyzed using a CytoFLEX system (Beckman Coulter). 50,000 events were counted, and data was analyzed using the CytoFLEX system software (Beckman Coulter).

[6] = system: G34 GBM cells; test: Real-time PCR in G34-PCDH neurosphere GBM cells; type: cell-based, human; details: BIA 2 μM, 24 hours
Procedure: as §1

[7] = system: human brain microvascular endothelial cell monolayers; test: RNA sequencing of HBMEC monolayers (Example 3); type: cell-based; details: BiA 1 μM, 24 hours
Procedure: RNA Sequencing (RNAseq): RNA sequencing was performed by the Dana Faber molecular biology core according to their standard methods. RNA was prepared from human brain microvascular endothelial cell monolayers after 24 hours treatment with BiA. EXAMPLE 1 EFFECT OF INDIRUBIN ON THE BLOOD-TUMOR BARRIER (BTB)
In order to assess changes in gene expression profiles induced by alterations to barrier functions induced by indirubin, RNA sequencing was performed RNA prepared from human brain microvascular endothelial cell monolayers after 24 hours treatment with BiA. HBMEC monolayers were treated with BiA (1 μM) for 24 hours and gene expression profiles compared with untreated controls.

[8] = system: HCMEC/D3 cells; test: Immunofluorescence staining of HCMEC/D3 endothelial cells; type: cell-based, human; details: BIA 1 μM
Procedure: Immunofluorescent (IF) staining: For IF staining of HCMEC/D3 endothelial cells, we coated 8-well Nunc™ Lab-Tek™ chamber slides (Thermo Fisher Scientific) with 1× Type 1 rat-tail collagen (Corning) following provider's instructions. Then, we plated at a density of 50,000 cells/well and left in culture for 72 hours to allow for barrier formation. Next, we treated with BIA or control for 24-48 hours. Cells were then fixed with 10% formalin (Thermo Fisher Scientific) for 10 minutes, permeabilized for 30 minutes using 0.01% Triton X-100 and blocked with 0.1% normal donkey serum (Calbiochem) for 1 hour in 0.025% Tween-20 (Thermo Fisher Scientific) in Phosphate-Buffered Saline (PBS) (Gibco). Then, primary antibodies were added: mouse anti-CDH5 (VE-cadherin, BioLegend) 1:100, rabbit antiClaudin-5 (Thermo Fisher Scientific) 1:100, and mouse anti-ZO-1 (Invitrogen) 1:100, and incubated overnight in the cold. Next day, secondary antibodies were used for 2 hours at room temperature: Alexa Fluor 594 anti-mouse (1:500), Alexa Fluor 594 anti-rabbit (1:500), and Alexa Fluor 647 anti-mouse (1:500), all of these Thermo Fisher Scientific. For cytoskeleton staining Phalloidin-iFluor 488 (Abcam) 1:1000 for 30 minutes and nuclei staining using Hoechst 33342 (Thermo Fisher Scientific) 1:1000 for 5 minutes, at room temperature.

CC(=O)ON=C1C(=C2C(=O)Nc3cc(Br)ccc32)Nc2ccccc21 [BIA, 6-bromoindirubin acetoxime]
hydrophobicity [1]: highly hydrophobic
CDH5 expression in contra-lateral healthy brain regions [2]: did not observe significant changes in expression of CDH5
CDH5 in CD31+ endothelial cells and CDH5+ tumor cells [2]: striking decrease of CDH5
Claudin-5 staining in tissue ([2]; G9-PCDH xenograft): no visible differences in Claudin-5 staining
ZO-1 expression in tissue ([2]; G9-PCDH xenograft): mild reductions of ZO-1 expression
CCL2 secretion [3]: significant downregulation
cytokine secretion profile (TNF-α, IFNg, IL-17A, IL6, IL-1b, prolactin, CCL8, CCL4) [3]: pro-inflammatory secretion profile
CDH5 expression at the transcriptional level [4]: decreased expression
cell cycle states [5]: slight decreased G1 and M states
CDH5 expression [6]: reduced the expression
WNT7B and S1PR3 expression [6]: diminishment
gene expression pathways (TGF-β, Wnt signaling, angiogenesis/BTB) [7]: alteration to major pathways
CDH5 immunofluorescence at the membrane periphery ([8]; 24-48 hrs): marked decrease
Claudin-5 immunofluorescence ([8]; 48 hours): no difference
ZO-1 immunofluorescence ([8]; 48 hours): marked reduction
